Laboratory results: US20220331322A1, “COMPOUND FOR INHIBITING CELL DEATH” (Christian-Albrechts-Universität zu Kiel, priority 2019, published 2022)

Legend:
[1] = test system: RIPK1; experiment: RIPK1 phosphorylation (Ser166) western blot after TSZ; type: cell-based, human; conditions: U937, TSZ, 1 mM primidone
Experimental: It was tested whether primidone interferes with binding of TNF-α to its corresponding receptor TNFR1. To induce cell death, human U937 cells were treated in the absence (vehicle) or presence of 1 mM primidone with 100 ng/ml Fc-tagged TNF-α+1 μM SMAC mimetic SM164+25 μM zVAD (TSZ) for different time periods, followed by immunopurification of the immunoprecipitated TNF-α-induced complex I using μMACS™ protein A/G microbeads, and western blot analysis using a specific RIPK1 antibody.
It was then analyzed if the previously immunoprecipitated RIPK1 is activated by phosphorylation. For this purpose, the Western Blot shown before (FIG. 5) was “stripped” by chemically removing all reagents from the blot and re-developed with an antibody that only detects RIPK1 in its activate (i.e. phosphorylated) form.

[2] = test system: L929 cells; experiment: TLR3-mediated cell death induced by poly (I:C) + zVAD; type: cell-based, murine; conditions: L929, 1 μg/ml poly (I:C) + 25 μM zVAD, 24 h; primidone 1 mM, Nec-1s 20 μM
Excerpt: Cell death was induced by activation of the Toll-like receptor 3 (TLR3). TLR3 is mainly expressed on immune cells, where it senses pathogen-associated molecular patterns and initiates innate immune response. The TLR3 agonist poly (I:C) was developed to mimic pathogens infection and boost immune system activation. In experimental models, poly (I:C) is known to induce regulated cell death in cells expressing TLR3. To examine whether primidone also blocks TLR3-mediated cell death, murine L929 cells were stimulated for 24 h at 37° C. with vehicle (a), 1 μg/ml of the TLR3 ligand poly (I:C) alone (b) or in combination with 25 μM zVAD (c). In addition, cells were stimulated with 1 μg/ml poly (I:C), 25 μM zVAD and 20 μM Nec-1s (d) and with 1 μg/ml poly (I:C), 25 μM zVAD and 1 mM primidone (e).

[3] = Kidney ischemia-reperfusion injury (IRI) mouse model; type: in vivo; conditions: mice
Experimental: IRI is a clinically highly relevant model, since it is an unavoidable consequence after kidney transplantation and contributes to acute kidney injuries in various contexts (Müller et al., 2017). To test whether primidone could be used to suppress pathophysiological RIPK1-mediated cell death in renal IRI, mice were provided with a drinking solution containing either primidone at 2.875 mM or vehicle in the regular drinking water for five days prior to ischemia reperfusion surgery until the end of the reperfusion phase. Induction of murine kidney IRI was performed via a midline abdominal incision and bilateral renal pedicle clamping for 37 min using microaneurysm clamps (Aesculap Inc., Center Valley, Pa., USA). Throughout the surgical procedure, mice were kept under isoflurane narcosis and the body temperature was maintained at 36° C. to 37° C. by continuous monitoring using a temperature-controlled self-regulated heating system (Fine Science Tools, Heidelberg, Germany). After removal of the clamps, reperfusion of the kidneys was confirmed visually before the abdomen was closed in two layers using standard 6-0 sutures. After 48 h reperfusion, the mice were sacrificed, blood samples were taken by retrobulbar punction and organs were collected for analysis.
For histology, kidney samples freshly obtained were fixed in 4.5% neutral-buffered formaldehyde and embedded in paraffin. Sections were dewaxed, rehydrated, and subjected to Masson trichrome staining according to routine protocols. Sections were dehydrated and mounted using DePeX mounting media (Serva). Stainings were evaluated in a blinded manner using a Leica Axiovert microscope and Axio Vision SE64 Rel 4.9. software (Leica Microsystems, Wetzlar, Germany). For data presentation, mild sharpening, contrast enhancement and gamma adjustment was performed. To analyze cell death of the tissue sections, a TdT-mediated dUTP nick end labelling (TUNEL) assay was performed using a fluorescence-based detection kit according to the manufacturer's instructions (G3250, Promega). Briefly, tissue sections were dewaxed, rehydrated, fixed in 4% paraformaldehyde and permeabilized with Proteinase K for 10 min at RT. Following this, the sections were equilibrated with the provided buffer for 10 min and labeled with the TdT reaction mix for 60 min at 37° C. in a humidified dark environment. […] Fluorescence micrographs (data not shown) were acquired with a 20× and 40× objective magnifications using a standard fluorescein filter set to view the green fluorescence at 520 nm with a Leica Axiovert microscope and Axio Vision SE64 Rel 4.9 software. Quantification of TUNEL-positive cells was performed manually by two blinded observers by evaluating 8 randomly selected fields of view per slide.

[4] = test system: L929 cells; experiment: Stimulation assay: TNF-α + 5Z-7 (± zVAD) induced RIPK1-dependent apoptosis/necroptosis; type: cell-based, murine; conditions: primidone 1 mM, Nec-1s 20 μM
Experimental: Murine fibroblasts (L929 cells) were stimulated for 24 h at 37° C. in the presence of (a) vehicle, (b) 10 ng/ml tumor necrosis factor alpha (TNF-α), (c) 1 μM 5Z-7-oxozeaenol (5Z-7), (d) a combination of 10 ng/ml TNF-α and 1 μM 5Z-7, (e) a combination of 10 ng/ml TNF-α, 1 μM 5Z-7, and 20 μM necrostatin-1 (Nec-1s), (f) a combination of 10 ng/ml TNF-α, 1 μM 5Z-7, and 1 mM primidone (primidone is referred to in the Figures as compound A), (g) a combination of 10 ng/ml TNF-α, 1 μM 5Z-7, and 25 μM zVAD, (h) a combination of 10 ng/ml TNF-α, 1 μM 5Z-7, and 20 μM Nec-1s, and (i) a combination of 10 ng/ml TNF-α, 1 μM 5Z-7, 25 μM zVAD, and 1 mM primidone. TNF-α is a pro-inflammatory cytokine which triggers cell survival (canonical pathway) or cell death, depending on the cellular context. 5Z-7-oxozeaenol (5Z-7) is an inhibitor of transforming growth factor activated kinase 1 (TAK1). TAK1 is an intermediate in the signaling pathway of the TNF-receptor type 1 (TNFR1), and it is known that TAK1 is essential for the prevention of TNF-induced cell death. Cells in which TAK1 is disrupted or otherwise blocked are hypersensitive to TNF-α-induced cell death due to diminished prosurvival pathways including NF-κB and reduced antioxidant enzymes which results in activation of caspases. The compound zVAD is a pan-caspase inhibitor.

[5] = primidone 2.875 mM in drinking water from 5 days before surgery, 37 min bilateral clamping, 48 h after reperfusion

CCC1(c2ccccc2)C(=O)NCNC1=O [primidone, 5-Ethyl-5-phenyl-1,3-diazinane-4,6-dione]
Activation (phosphorylation) of RIPK1 at residue Ser166 [1]: completely blocked
Protection from RIPK1-mediated cell death induced by poly (I:C) and zVAD [2]: effectively protect cells
Serum concentration of creatinine [3, 5]: significantly reduced
Serum concentration of urea [3, 5]: significantly reduced
TUNEL-positive cells (cells undergoing regulated cell death) in kidney sections ([3]; primidone 2.875 mM in drinking water, 48 h reperfusion): significant reduced number of cells undergoing regulated cell death
Masson trichrome histology of renal outer medulla (tissue integrity) ([3]; primidone 2.875 mM in drinking water, 48 h reperfusion, data not shown): better preservation of tissue integrity
Block of RIPK1-dependent necroptosis ([4]; L929, 10 ng/ml TNF-α + 1 μM 5Z-7 + 25 μM zVAD, 24 h): able to block
Block of RIPK1-dependent apoptosis (RDA) ([4]; L929, 10 ng/ml TNF-α + 1 μM 5Z-7, 24 h, zVAD 25 μM): could also be blocked
